In PubChem BioAssay AID1745844 (Carcinogenic Potency Database (CPDB), 2022):

Tested on: rodent lifetime carcinogenesis bioassay, tumor incidence TD50
Test: carcinogenic potency in animals, long-term in vivo studies, CPDB compilation (AID 1745844)
Conditions: mouse, strain B6C3F1, males, inhaled

SMILES: C=CC=C
- TD50 (site: all sites, lesion: malignant lymphoma, mixed type + malignant lymphoma, lymphocytic type + malignant lymphoma, dosed 26 weeks, study length 104 weeks): 31.3 mg/kg/day
- TD50 (site: all sites, lesion: malignant lymphoma, mixed type + malignant lymphoma, lymphocytic type + malignant lymphoma, dosed 40 weeks, study length 104 weeks): 108 mg/kg/day
- TD50 (site: all sites, lesion: malignant lymphoma, mixed type + malignant lymphoma, lymphocytic type + malignant lymphoma, dosed 52 weeks, study length 104 weeks): 46.4 mg/kg/day
- TD50 (site: all sites, lesion: malignant lymphoma, mixed type + malignant lymphoma, dosed 13 weeks, study length 104 weeks): 78.1 mg/kg/day
- TD50 (site: all sites, lesion: malignant lymphoma, mixed type + malignant lymphoma, dosed 26 weeks, study length 104 weeks): 111 mg/kg/day
- TD50 (site: all sites, lesion: malignant lymphoma, mixed type + malignant lymphoma, dosed 40 weeks, study length 104 weeks): 487 mg/kg/day
- TD50 (site: all sites, lesion: malignant lymphoma, mixed type + malignant lymphoma, dosed 52 weeks, study length 104 weeks): 76.2 mg/kg/day
- TD50 (site: any site (literature study), lesion: several types, types named in the paper, dosed 13 weeks, study length 104 weeks): 6.92 mg/kg/day
- TD50 (site: any site (literature study), lesion: several types, types named in the paper, dosed 26 weeks, study length 104 weeks): 12.5 mg/kg/day
- TD50 (site: any site (literature study), lesion: several types, types named in the paper, dosed 40 weeks, study length 104 weeks): 10.8 mg/kg/day
- TD50 (site: any site (literature study), lesion: several types, types named in the paper, dosed 52 weeks, study length 104 weeks): 5.84 mg/kg/day
- TD50 (site: any site (literature study), lesion: several types, types named in the paper, dosed 60 weeks, study length 60 weeks): 28.8 mg/kg/day
- TD50 (site: any site (literature study), lesion: several types, types named in the paper, dosed 82 weeks, study length 104 weeks): 10.5 mg/kg/day
- TD50 (site: brain, lesion: olfactory lobe, glioma malignant, dosed 13 weeks, study length 104 weeks): 230 mg/kg/day
- TD50 (site: brain, lesion: olfactory lobe, glioma malignant, dosed 26 weeks, study length 104 weeks): 403 mg/kg/day
- TD50 (site: brain, lesion: olfactory lobe, neuroblastoma malignant, dosed 13 weeks, study length 104 weeks): 394 mg/kg/day
- TD50 (site: forestomach, lesion: papilloma, NOS + squamous-cell carcinoma + squamous-cell papilloma, dosed 60 weeks, study length 60 weeks): 120 mg/kg/day
- TD50 (site: forestomach, lesion: papilloma, NOS + squamous-cell papilloma, dosed 60 weeks, study length 60 weeks): 140 mg/kg/day
- TD50 (site: forestomach, lesion: squamous-cell carcinoma + squamous-cell papilloma, dosed 13 weeks, study length 104 weeks): 44.8 mg/kg/day
- TD50 (site: forestomach, lesion: squamous-cell carcinoma + squamous-cell papilloma, dosed 26 weeks, study length 104 weeks): 91.4 mg/kg/day
- TD50 (site: forestomach, lesion: squamous-cell carcinoma + squamous-cell papilloma, dosed 40 weeks, study length 104 weeks): 171 mg/kg/day
- TD50 (site: forestomach, lesion: squamous-cell carcinoma + squamous-cell papilloma, dosed 52 weeks, study length 104 weeks): 42.8 mg/kg/day
- TD50 (site: forestomach, lesion: squamous-cell carcinoma + squamous-cell papilloma, dosed 60 weeks, study length 60 weeks): 557 mg/kg/day
- TD50 (site: forestomach, lesion: squamous-cell carcinoma + squamous-cell papilloma, dosed 82 weeks, study length 104 weeks): 197 mg/kg/day
- TD50 (site: forestomach, lesion: squamous-cell carcinoma, dosed 13 weeks, study length 104 weeks): 43.4 mg/kg/day
- TD50 (site: forestomach, lesion: squamous-cell carcinoma, dosed 26 weeks, study length 104 weeks): 136 mg/kg/day
- TD50 (site: forestomach, lesion: squamous-cell carcinoma, dosed 52 weeks, study length 104 weeks): 154 mg/kg/day
- TD50 (site: forestomach, lesion: squamous-cell papilloma, dosed 13 weeks, study length 104 weeks): 117 mg/kg/day
- TD50 (site: forestomach, lesion: squamous-cell papilloma, dosed 26 weeks, study length 104 weeks): 284 mg/kg/day
- TD50 (site: forestomach, lesion: squamous-cell papilloma, dosed 40 weeks, study length 104 weeks): 171 mg/kg/day
- TD50 (site: forestomach, lesion: squamous-cell papilloma, dosed 52 weeks, study length 104 weeks): 77.7 mg/kg/day
- TD50 (site: forestomach, lesion: squamous-cell papilloma, dosed 82 weeks, study length 104 weeks): 230 mg/kg/day
- TD50 (site: heart + peritoneal cavity, lesion: hemangiosarcoma, dosed 60 weeks, study length 60 weeks): 96.7 mg/kg/day
- TD50 (site: heart, lesion: hemangiosarcoma, dosed 13 weeks, study length 104 weeks): 32.6 mg/kg/day
- TD50 (site: heart, lesion: hemangiosarcoma, dosed 26 weeks, study length 104 weeks): 18.5 mg/kg/day
- TD50 (site: heart, lesion: hemangiosarcoma, dosed 40 weeks, study length 104 weeks): 21.9 mg/kg/day
- TD50 (site: heart, lesion: hemangiosarcoma, dosed 52 weeks, study length 104 weeks): 13.9 mg/kg/day
- TD50 (site: heart, lesion: hemangiosarcoma, dosed 60 weeks, study length 60 weeks): 96.7 mg/kg/day
- TD50 (site: heart, lesion: hemangiosarcoma, dosed 82 weeks, study length 104 weeks): 64.8 mg/kg/day
- TD50 (site: jejunum, lesion: carcinoma, dosed 82 weeks, study length 104 weeks): 310 mg/kg/day
- TD50 (site: kidney, lesion: adenoma + tubule adenoma, dosed 52 weeks, study length 104 weeks): 190 mg/kg/day
- TD50 (site: kidney, lesion: tubule adenoma, dosed 13 weeks, study length 104 weeks): 201 mg/kg/day
- TD50 (site: kidney, lesion: tubule adenoma, dosed 26 weeks, study length 104 weeks): 961 mg/kg/day
- TD50 (site: kidney, lesion: tubule adenoma, dosed 40 weeks, study length 104 weeks): 161 mg/kg/day
- TD50 (site: kidney, lesion: tubule adenoma, dosed 82 weeks, study length 104 weeks): 268 mg/kg/day
- TD50 (site: liver, lesion: hepatoblastoma + hepatocellular carcinoma, dosed 13 weeks, study length 104 weeks): 23.4 mg/kg/day
- TD50 (site: liver, lesion: hepatoblastoma + hepatocellular carcinoma, dosed 26 weeks, study length 104 weeks): 60 mg/kg/day
- TD50 (site: liver, lesion: hepatoblastoma + hepatocellular carcinoma, dosed 52 weeks, study length 104 weeks): 41.4 mg/kg/day
- TD50 (site: liver, lesion: hepatocellular adenoma + hepatoblastoma + hepatocellular carcinoma, dosed 13 weeks, study length 104 weeks): 15.1 mg/kg/day
- TD50 (site: liver, lesion: hepatocellular adenoma + hepatoblastoma + hepatocellular carcinoma, dosed 26 weeks, study length 104 weeks): 23.8 mg/kg/day
- TD50 (site: liver, lesion: hepatocellular adenoma + hepatoblastoma + hepatocellular carcinoma, dosed 52 weeks, study length 104 weeks): 13.8 mg/kg/day
- TD50 (site: liver, lesion: hepatocellular adenoma + hepatocellular carcinoma + neoplastic nodule, dosed 13 weeks, study length 104 weeks): 15.1 mg/kg/day
- TD50 (site: liver, lesion: hepatocellular adenoma + hepatocellular carcinoma + neoplastic nodule, dosed 26 weeks, study length 104 weeks): 23.8 mg/kg/day
- TD50 (site: liver, lesion: hepatocellular adenoma + hepatocellular carcinoma + neoplastic nodule, dosed 40 weeks, study length 104 weeks): 16.8 mg/kg/day
- TD50 (site: liver, lesion: hepatocellular adenoma + hepatocellular carcinoma + neoplastic nodule, dosed 52 weeks, study length 104 weeks): 14.6 mg/kg/day
